One assay relates to rat nodal ganglion cells. Conditions: various concentrations; ref [31], [32], [33], [34]; cited from earlier work. The source says: Previous reports indicate that rat nodal ganglion cells respond to various concentrations of hormones, including CCK, GLP1, PYY, and 5‐HT [31, 32, 33, 34]. […] However, it is noteworthy that the overexpression of these receptors in our model may not reconstruct natural expres ...

The test system of a further assay is GLP1R‐neurons. In words: Ca^2+ imaging, GLP1R‐neurons (iPSC‐derived). It counts as cell-based, human. The following applies: 10 nM GLP1 (GLP1 (7–37) in method), day 35, Fluo‐8 AM. As for the experimental part: Before initiating differentiation, the iPSCs (1–2 × 10^5 cells·cm^−2; Cell lines and cell culture section) were transferred to 6‐well plates (Corning, Inc., Corning, NY, USA) coated with 2‐methacryloyloxyethyl phosphorylcholine (MPC) polymer (Lipidure CM5206E; NOF, Tokyo, Japan). The cells were maintained in mTeSR1 cGMP medium containing 10 μM Y‐27632 (Fujifilm Wako Pure Chemical Industries) for 2 or 3 days to form embryoid body (EBs) in a rotary shaker at 95 r.p.m. (OS‐762RC; Optime, Tokyo, Japan). Subsequently, iPSCs were differentiated into neural crest cells (NCCs), as previously reported. Briefly, NCCs were induced from Ebs using knockout serum replacement (KSR) medium and N2 medium with graded addition of nerve growth factors and signaling factors. KSR medium was composed of DMEM‐F12 (Fujifilm Wako Pure Chemical Industries), 20% KSR (Thermo Fisher Scientific), 1% NEAA, 1% monothioglycerol (Fujifilm Wako Pure Chemical Industries), and 1% P/S. N2 medium consisted of DMEM‐F12, 1% N2 supplement (Fujifilm Wako Pure Chemical Industries), 1% NEAA, and 1% P/S. When EB formation was considered day 0 of induction, the medium was changed at days 2, 5, 7, 9, and 12. […]

As to “PYY: PYY (4400‐v; Peptide Institute, Inc.); PYY (3–36) in Ca2+ imaging”, the “Response of rat nodal ganglion cells” value in the assay on rat nodal ganglion cells is given as “respond”.
“GLP1: GLP1 (4280‐v; Peptide Institute, Inc.); GLP1 (7–37) in Ca2+ imaging (HAEGTFTSDVSSYLEGQAAKEFIAWLVKGRG; Glucagon-like peptide 1(7-37); UniProt P01275 98-128, looked up)”: in the assay with rat nodal ganglion cells, the “Response of rat nodal ganglion cells” value is given as “respond”. Moreover, in the assay with GLP1R‐neurons (Fig. S5B), the “Intracellular Ca^2+ concentration of selected GLP1R‐neurons (traces)” value is “increased the intracellular Ca^2+ concentration”. Besides, in the assay with GLP1R‐neurons (n = 10, Student's t‐test vs. 0 nM, Fig. 6C), the “Ratio of change (ΔF stim/F 0) in mean fluorescence intensity before and after ligand addition” value was “significantly increased”.

Values taken from paper PMC10761937, “Functional engineering of human iPSC‐derived parasympathetic neurons enhances responsiveness to gastrointestinal hormones” (FEBS Open Bio, 2023).
